What is called EC50 is the concentration giving half of the maximal effect.

Values joined by “and” are separate entries in the source; they are usually repeats but may differ in a detail not shown here. Identical values can stand only once. Like-named read-outs stand apart in the source and are kept apart here. Where only a bound is given, the exact number is not on record here.

Assay [1] has as its system Cells exposed to TPrP. As to conditions: for EC50: read-out: Viability EC50.
Assay [2] deals with Cells exposed to TPrP. The assay is described as follows: cells. As to conditions: read-out: Viability EC50.
The subject of assay [3] is PK1 neuroblastoma cells treated with TPrP. The assay is described as follows: cells. The format is cell-based. As to conditions: Neuroblastoma cell, read-out: Viability EC50.
Assay [4] shares this test system. The assay is described as follows: cells. The format is cell-based. As to conditions: Neuroblastoma cell, read-out: NAD EC50.
Assay [5] relates to Murine stem-cell derived neurons. The assay is described as follows: Cellular PD/synucleinopathy model, PFFs-seeded murine neurons, neurite length. As to conditions: FIG. 14. In kind it is cell-based. The procedure:
Murine stem-cell derived neurons (8 days post-differentiation) were seeded with PFFs (A, B: 4 μg/ml; C, D: 3 μg/ml) and treated with the test compounds at the dose indicated, or with the vehicle DMSO, during the last 2 days of differentiation. Control cells were not PFFs-seeded. Cells were photographed by phase contrast microscopy. Neurite length was quantified using the NeuronJ plugin of ImageJ (NIH), statistical analysis was done in pairs by comparing compound-treated cells with the DMSO control (student's t-test, Prism8). Mean values and SEMs of 4 fields per each condition are shown. Each field contained approximately 50 to 100 neurons. Images shown correspond to a representative area of one field. ****P<0.0001; ***P<0.001; **P<0.01; *P<0.05; ns=not significant.

As for `O=C(NCCCn1ccnc1)c1cnn2c(C(F)(F)F)cc(-c3ccc(Br)cc3)nc12` [SR0-24082], the “Viability EC50: % effective” value with Cells exposed to TPrP [1] is listed as ~40% effective at nM, fully effective at 10 nM.

As for `O=C(NCCCn1ccnc1)c1cnn2c(C(F)F)cc(-c3ccccc3)nc12` [SR0-24084], the “Viability EC50: % effective” value with Cells exposed to TPrP [1] (at 1 nM) is ~40% effective at 1 nM, fully effective at 10 nM.

Consider `COc1ccc(-c2cc(C(F)(F)F)n3ncc(C(=O)NCCCn4ccnc4C)c3n2)cc1` [SR3-5210], for which the EC50 in the assay with Cells exposed to TPrP [1] turned out to be 2.7 nM.

Consider `CCc1c(C(=O)N[C@H]2CC[C@@H](N)CC2)ncc2[nH]c3cc(OC)c(OC)cc3c12` [DMCM-8137], for which the “neuroprotection in the TPrP neuroprotection assay” value in the assay with Cells exposed to TPrP [1] is recorded as “neuroprotective”. The EC50 with Cells exposed to TPrP [2] is approximately 500 nM.

In the case of `CCc1c(C(=O)NCCN)ncc2[nH]c3cc(OC)c(OC)cc3c12` [DMCM-8130], the EC50 in the assay on Cells exposed to TPrP [1] was approximately 600 nM.

As to `COc1ccc(-c2cc(C(F)(F)F)n3ncc(C(=O)NCCCn4ccnc4C)c3n2)cc1` [SR0-31108], the EC50 in the assay on Cells exposed to TPrP [1] is more than 50 nM.

For the molecule `COc1cc2c(cc1OC)-c1cc3ccc(OC)c(OC)c3c[n+]1CC2` [SR1-841226, palmatine chloride], the figures for the EC50 in assay [3] and in assay [4] were 1100 nM and 2000 nM, respectively.

Take `NS(=O)(=O)c1ccc(Nc2nc(-c3ccc(F)cc3)cs2)cc1` [SR1-742242]: the EC50 was 197 nM in assay [3] and 946 nM in assay [4].

In the case of `c1ccc2c(c1)OCC(CNc1nnc(Cc3ccncc3)c3ccccc13)O2` (stereo not drawn) [SR1-134003], the EC50 in assay [3] was 200 nM; in assay [4], 1200 nM.

Consider `COc1ccc(-c2cc(C(F)(F)F)n3ncc(C(=O)NCCCn4ccnc4)c3n2)cc1` [SR0-28468], for which the EC50 in the assay on Cells exposed to TPrP [1] was more than 50 nM.

Consider `COc1ccc(-c2cc(=O)c3c(O)cc(OC)cc3o2)cc1` [SR5-2549, 5-hydroxy-7-methoxy-2-(4-methoxyphenyl)-4H-chromen-4-one], for which the results for the EC50 in assay [3] and in assay [4] were 2000 nM and 7300 nM, respectively.

Turning to `COc1ccc(-c2cc(C(F)(F)F)n3ncc(C(=O)NCCCn4ccnc4)c3n2)cc1` [SR3-5315], the EC50 in the assay on Cells exposed to TPrP [1] is more than 16 nM.

For the molecule `COc1ccc(-c2nnc3c4ccccc4c(C)nn23)cc1S(=O)(=O)N1CCOCC1` [SR5-22837], the results for the EC50 in assay [3] and in assay [4] were 29 nM and 89 nM, respectively.

Take `NS(=O)(=O)c1ccc(Nc2nc(-c3ccccc3)cs2)cc1` [SR1-492469]: the EC50 in assay [3] is 311 nM; in assay [4] it was 859 nM.

Take `COc1cc2c(cc1O)C[C@H]1c3c(cc(O)c(OC)c3-2)CCN1C` [SR1-758928, boldine]: the EC50 amounted to 2000 nM in assay [3] and 7600 nM in assay [4].

Consider `O=C(NCCCn1ccnc1)c1cnn2c(C(F)(F)F)cc(-c3ccc(F)cc3)nc12` [SR0-24083], for which, in the assay on Cells exposed to TPrP [1] (at 1 nM), the “Viability EC50: % effective” value is reported as ~40% effective at 1 nM, fully effective at 10 nM.

For `Cc1nc(C)c(-c2csc(Nc3ccc(S(N)(=O)=O)cc3)n2)s1` [SR-27807], the EC50 in the assay on Cells exposed to TPrP [1] was 50 nM.

Turning to `NS(=O)(=O)c1ccc(Nc2nc(-c3ccccn3)cs2)cc1` [SR1-477176], the EC50 was found to be 227 nM in assay [3] and 891 nM in assay [4].

For the molecule `COc1ccc(-c2oc3cc(OC)c(OC)c(OC)c3c(=O)c2OC)cc1OC` [SR5-2644, 2-(3,4-dimethoxyphenyl)-3,5,6,7-tetramethoxy-4H-chromen-4-one], the EC50 in assay [3] came out at 620 nM; in assay [4] it was 1200 nM.

As for `O=c1cc(-c2ccc(O)cc2)oc2cc(O[C@@H]3O[C@H](CO)[C@@H](O)[C@H](O)[C@H]3OC3OC[C@](O)(CO)[C@H]3O)cc(O)c12` (stereo partly drawn) [SR1-712126], the results for the EC50 in assay [3] and in assay [4] were 4600 nM and 10700 nM, respectively.

As to `O=c1cc(-c2ccc(O)cc2)oc2cc(O[C@@H]3O[C@H](CO)[C@H](O)[C@H](O)[C@H]3O)cc(O)c12` [SR5-2196, apigenin 7-(β-D-galactopyranosyl) ether], the values for the EC50 in assay [3] and in assay [4] were 4600 nM and more than 10000 nM, respectively.

Take `COc1ccc(-c2cc(=O)c3c(O)c(OC)c(OC)c(OC)c3o2)cc1OC` [SR-05000002635, 2-(3,4-dimethoxyphenyl)-5-hydroxy-6,7,8-trimethoxy-4H-chromen-4-one]: the EC50 in assay [3] stood at 81 nM; in assay [4] it was 609 nM.

For the molecule `COc1ccc(-c2nnc3c4ccccc4c(C)nn23)cc1S(=O)(=O)NCc1cccnc1` [SR5-22838], the results for the EC50 in assay [3] and in assay [4] were 90 nM and 380 nM, respectively.

For `COc1ccc(-c2cc(=O)c3c(OC)c(OC)c(OC)c(OC)c3o2)cc1` [SR-05000002625, 5,6,7,8-tetramethoxy-2-(4-methoxyphenyl)-4H-chromen-4-one], the concentration giving a half-maximal response (EC50) in assay [3] was found to be 1900 nM; in assay [4], 6000 nM.

Take `CNC(=O)c1cc2c(cn1)[nH]c1ccccc12` [SR1-75632, N-methyl-9H-pyrido[3,4-b]indole-3-carboxamide]: the EC50 in assay [3] is 3200 nM; in assay [4] it was more than 15000 nM.

As to `COc1ccc(-c2nnc3c4ccccc4c(C)nn23)cc1S(=O)(=O)NC(C)(C)CO` [SR1-87819], the EC50 amounted to 98 nM in assay [3] and 682 nM in assay [4].

Regarding `CNS(=O)(=O)c1cc(-c2nnc3c4ccccc4c(C)nn23)ccc1C` [SR1-115255], the EC50 came to 196 nM in assay [3] and 1200 nM in assay [4].

Take `COc1ccc2c(c1O)-c1c(OC)c(O)cc3c1[C@H](C2)N(C)CC3` [SR1-841246, N-Methyl lindcarpine]: the EC50 in assay [3] was 4400 nM; in assay [4], more than 15000 nM.

`O=C(NCCCn1ccnc1)c1cnn2c(C(F)(F)F)cc(-c3ccc(-c4ccco4)cc3)nc12` [SR1-550907]: the values for the EC50 in assay [3] and in assay [4] were 2.9 nM and 9.7 nM, respectively.

In the case of `Cc1nc2sccn2c1-c1csc(Nc2ccc(S(N)(=O)=O)cc2)n1` [SR1-477230], the results for the EC50 in assay [3] and in assay [4] were 47 nM and 204 nM, respectively.

Consider `COc1cc(OC)c2cc(-c3ccncc3)cnc2c1` [DMPQ], for which the EC50 in assay [3] was 505 nM; in assay [4], 5500 nM.

With `COc1ccc(-c2cc(C(F)(F)F)n3ncc(C(=O)NCCCn4ccnc4C)c3n2)cc1` [SR0-31107], in the assay on Cells exposed to TPrP [1], the EC50 was found to be 2 nM.

Turning to `COc1ccc(-c2cc(C(F)(F)F)n3ncc(C(=O)NCCCn4ccnc4)c3n2)cc1` [SR0-24081], in the assay on Cells exposed to TPrP [1], the EC50 is 0.5 nM.

With `COc1cc(OC)c2c(=O)cc(-c3ccccc3)oc2c1` [SR1-758978, 5,7-dimethoxy-2-phenyl-4H-chromen-4-one], the results for the EC50 in assay [3] and in assay [4] were 1700 nM and more than 10000 nM, respectively.

On to `COc1ccc(-c2cc(C(F)(F)F)n3ncc(C(=O)NCCCn4ccnc4)c3n2)cc1` [SR3-5230], for which the EC50 in the assay with Cells exposed to TPrP [1] is more than 32 nM.

As for `COc1cc2cc3c4cc(OC)c(OC)cc4cc[n+]3c(C)c2cc1OC` [SR5-2641, coralyne chloride], the EC50 was 507 nM in assay [3] and 671 nM in assay [4].

Regarding `Cc1nc2ncccn2c1-c1csc(Nc2ccc(S(N)(=O)=O)cc2)n1` [SR1-477264], the EC50 in assay [3] was found to be 155 nM; in assay [4], 597 nM.

In the case of `COc1cc2c(cc1OC)[C@H]1[C@@H](C)c3ccc(OC)c(OC)c3CN1CC2` [SR5-2225, corydaline], the EC50 in assay [3] is 1300 nM; in assay [4] it was 2000 nM.

Turning to `Cc1nc(C)c(-c2csc(Nc3ccc(S(N)(=O)=O)cc3)n2)s1` [SR1-477302], the EC50 in the assay on Cells exposed to TPrP [1] was 18 nM and 30 nM; in assay [3] it was 14 nM; in assay [4] it was 103 nM.

As to `COc1ccc2cc3[n+](cc2c1OC)CCc1cc2c(cc1-3)OCO2` [SR1-711827, berberine chloride], the 50% effective concentration (EC50) in assay [3] is 3100 nM; in assay [4], 13200 nM.

Take `COc1ccc(-c2csc(Nc3ccc(S(N)(=O)=O)cc3)n2)cc1` [SR1-223735]: the EC50 was 87 nM in assay [3] and 360 nM in assay [4].

Regarding `COc1ccc(-c2cc(=O)c3c(OC)c(OC)c(OC)cc3o2)cc1OC` [SR-05000002257, 2-(3,4-dimethoxyphenyl)-5,6,7-trimethoxy-4H-chromen-4-one], the results for the EC50 in assay [3] and in assay [4] were 323 nM and 3600 nM, respectively.

On to `CN1C[C@H](CO)C=C2c3cccc4[nH]cc(c34)C[C@H]21` [SR1-758923, lysergol], for which the values for the EC50 in assay [3] and in assay [4] were 1900 nM and more than 15000 nM, respectively.

For the molecule `CCc1c(C(=O)NCCN)ncc2[nH]c3cc(OC)c(OC)cc3c12` [DMCM-8124], in the assay on Cells exposed to TPrP [1], the EC50 was approximately 1800 nM.

For the molecule `Cc1ccc(-c2cc(C(F)(F)F)n3ncc(C(=O)NCCCn4ccnc4)c3n2)cc1` [SR1-527764], the concentration giving a half-maximal response (EC50) in assay [3] amounted to 1.9 nM; in assay [4] it was 7.1 nM.

On to `O=c1cc(-c2ccc(O)cc2)oc2cc(O)cc(O)c12` [SR1-75663, 5,7-dihydroxy-2-(4-hydroxyphenyl)-4H-chromen-4-one], for which the EC50 was 1700 nM in assay [3] and more than 10000 nM in assay [4]. Further, the “loss of neurites induced by PFFs exposure” value in assay [5] is on record as “prevent loss of neurites”.

Regarding `Cc1ccc(-c2cc(C(F)F)n3ncc(C(=O)NCCCn4ccnc4)c3n2)cc1` [SR-024088], the “Viability EC50: % effective” value with Cells exposed to TPrP [1] (at 1 nM) is given as more than 80% effective at 1 nM.

`CC(=O)Nc1cccc(-c2csc(Nc3ccc(S(N)(=O)=O)cc3)n2)c1` [SR1-364643]: the results for the EC50 in assay [3] and in assay [4] were 53 nM and 263 nM, respectively.

With `COc1ccc2c3c([nH]c2c1)C(C)=NCC3` [SR1-721899, harmaline], the EC50 in assay [3] amounted to 3800 nM; in assay [4], 14000 nM.

For the molecule `COc1ccc(C2CC(=O)c3cc(OC)ccc3O2)cc1` (stereo not drawn) [SR5-2542, 6-methoxy-2-(4-methoxyphenyl) chroman-4-one], the EC50 in assay [3] is 2100 nM; in assay [4], more than 10000 nM.

As for `Cc1ccc(-c2nnc3c4ccccc4c(C)nn23)cc1S(=O)(=O)N1CCN(CCO)CC1` [SR1-626887], the EC50 in assay [3] was less than 3 nM; in assay [4], 9.1 nM.

The record behind these values is US12590094B2, “Compounds for the treatment of neurodegenerative and metabolic disorders” (UNIVERSITY OF FLORIDA RESEARCH FOUNDATION, INCORPORATED, priority 2019, dated 2026).
